Experimental data as given in patent publication US6358885B1, “Substituted phenylheterocyclic herbicides” (Mississippi State University, priority 1992, dated 2002).

What was measured:
Assay in all cases: Test B preemergence/postemergence greenhouse plant response rating 0 to 10
Conditions in all cases: 0 to 10 scale
barley = type: in vivo, Hordeum vulgare
Procedure, shortened: (§1)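 Planted seeds are treated preemergence with compound dissolved in a non-phytotoxic solvent, while postemergence applications go onto plants of two to eighteen cm. Plants stay in the greenhouse twelve to sixteen days and are then rated visually relative to controls.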

barnyardgrass = type: in vivo, Echinochloa crus-galli
Procedure, shortened: as §1

bedstraw = type: in vivo, Galium aparine
Procedure, shortened: as §1

blackgrass = type: in vivo, Alopecurus myosuroides
Procedure, shortened: as §1

cheatgrass = type: in vivo, Bromus secalinus
Procedure, shortened: as §1

chickweed = type: in vivo, Stellaria media
Procedure, shortened: as §1

cocklebur = type: in vivo, Xanthium pensylvanicum
Procedure, shortened: as §1

corn = type: in vivo, Zea mays
Procedure, shortened: as §1

cotton = type: in vivo, Gossypium hirsutum
Procedure, shortened: as §1

crabgrass = type: in vivo, Digitaria spp.
Procedure, shortened: as §1

giant foxtail = type: in vivo, Setaria faberii
Procedure, shortened: as §1

lambsquarters = type: in vivo, Chenopodium album
Procedure, shortened: as §1

morningglory = type: in vivo, Ipomoea hederacea
Procedure, shortened: as §1

rape = type: in vivo, Brassica napus
Procedure, shortened: as §1

rice = type: in vivo, Oryza sativa
Procedure, shortened: as §1

sorghum = type: in vivo, Sorghum bicolor
Procedure, shortened: as §1

soybean = type: in vivo, Glycine max
Procedure, shortened: as §1

sugar beet = type: in vivo, Beta vulgaris
Procedure, shortened: as §1

velvetleaf = type: in vivo, Abutilon theophrasti
Procedure, shortened: as §1

wheat = type: in vivo, Triticum aestivum
Procedure, shortened: as §1

wild buckwheat = type: in vivo, Polygonum convolvulus
Procedure, shortened: as §1

wild oat = type: in vivo, Avena fatua
Procedure, shortened: as §1

purple nutsedge = type: in vivo, Cyperus rotundus
Procedure, shortened: as §1

## C#CCOC(=O)COc1cc(-c2nn3c(c2Cl)CCCC3)c(F)cc1Cl [Compound 61]
barley; POSTEMERGENCE, Rate 10 g/ha
  Plant response rating, Barley: 1
barley; POSTEMERGENCE, Rate 50 g/ha
  Plant response rating, Barley: 2
barley; PREEMERGENCE, Rate 10 g/ha
  Plant response rating, Barley: 0
barley; PREEMERGENCE, Rate 50 g/ha
  Plant response rating, Barley: 0
barnyardgrass; POSTEMERGENCE, Rate 10 g/ha
  Plant response rating, Barnyardgrass: 2
barnyardgrass; POSTEMERGENCE, Rate 50 g/ha
  Plant response rating, Barnyardgrass: 2
barnyardgrass; PREEMERGENCE, Rate 10 g/ha
  Plant response rating, Barnyardgrass: 0
barnyardgrass; PREEMERGENCE, Rate 50 g/ha
  Plant response rating, Barnyardgrass: 0
bedstraw; POSTEMERGENCE, Rate 10 g/ha
  Plant response rating, Bedstraw: 5
bedstraw; POSTEMERGENCE, Rate 50 g/ha
  Plant response rating, Bedstraw: 9
bedstraw; PREEMERGENCE, Rate 10 g/ha
  Plant response rating, Bedstraw: 0
bedstraw; PREEMERGENCE, Rate 50 g/ha
  Plant response rating, Bedstraw: 5
blackgrass; POSTEMERGENCE, Rate 10 g/ha
  Plant response rating, Blackgrass: 2
blackgrass; POSTEMERGENCE, Rate 50 g/ha
  Plant response rating, Blackgrass: 3
blackgrass; PREEMERGENCE, Rate 10 g/ha
  Plant response rating, Blackgrass: 0
blackgrass; PREEMERGENCE, Rate 50 g/ha
  Plant response rating, Blackgrass: 2
cheatgrass; POSTEMERGENCE, Rate 10 g/ha
  Plant response rating, Cheatgrass: 2
cheatgrass; POSTEMERGENCE, Rate 50 g/ha
  Plant response rating, Cheatgrass: 3
cheatgrass; PREEMERGENCE, Rate 10 g/ha
  Plant response rating, Cheatgrass: 0
cheatgrass; PREEMERGENCE, Rate 50 g/ha
  Plant response rating, Cheatgrass: 2
chickweed; POSTEMERGENCE, Rate 10 g/ha
  Plant response rating, Chickweed: 2
chickweed; POSTEMERGENCE, Rate 50 g/ha
  Plant response rating, Chickweed: 2
chickweed; PREEMERGENCE, Rate 50 g/ha
  Plant response rating, Chickweed: 3
cocklebur; POSTEMERGENCE, Rate 10 g/ha
  Plant response rating, Cocklebur: 4
cocklebur; POSTEMERGENCE, Rate 50 g/ha
  Plant response rating, Cocklebur: 8
cocklebur; PREEMERGENCE, Rate 10 g/ha
  Plant response rating, Cocklebur: 0
cocklebur; PREEMERGENCE, Rate 50 g/ha
  Plant response rating, Cocklebur: 0
corn; POSTEMERGENCE, Rate 10 g/ha
  Plant response rating, Corn: 3
corn; POSTEMERGENCE, Rate 50 g/ha
  Plant response rating, Corn: 5
corn; PREEMERGENCE, Rate 50 g/ha
  Plant response rating, Corn: 0
cotton; POSTEMERGENCE, Rate 10 g/ha
  Plant response rating, Cotton: 9
cotton; POSTEMERGENCE, Rate 50 g/ha
  Plant response rating, Cotton: 10
cotton; PREEMERGENCE, Rate 10 g/ha
  Plant response rating, Cotton: 0
cotton; PREEMERGENCE, Rate 50 g/ha
  Plant response rating, Cotton: 0
crabgrass; POSTEMERGENCE, Rate 10 g/ha
  Plant response rating, Crabgrass: 2
crabgrass; POSTEMERGENCE, Rate 50 g/ha
  Plant response rating, Crabgrass: 2
crabgrass; PREEMERGENCE, Rate 10 g/ha
  Plant response rating, Crabgrass: 0
crabgrass; PREEMERGENCE, Rate 50 g/ha
  Plant response rating, Crabgrass: 0
Giant foxtail; POSTEMERGENCE, Rate 10 g/ha
  Plant response rating, Giant foxtail: 2
Giant foxtail; POSTEMERGENCE, Rate 50 g/ha
  Plant response rating, Giant foxtail: 2
Giant foxtail; PREEMERGENCE, Rate 10 g/ha
  Plant response rating, Giant foxtail: 0
Giant foxtail; PREEMERGENCE, Rate 50 g/ha
  Plant response rating, Giant foxtail: 0
lambsquarters; POSTEMERGENCE, Rate 10 g/ha
  Plant response rating, Lambsquarter: 9
lambsquarters; POSTEMERGENCE, Rate 50 g/ha
  Plant response rating, Lambsquarter: 9
lambsquarters; PREEMERGENCE, Rate 50 g/ha
  Plant response rating, Lambsquarter: 9
morningglory; POSTEMERGENCE, Rate 10 g/ha
  Plant response rating, Morningglory: 7
morningglory; POSTEMERGENCE, Rate 50 g/ha
  Plant response rating, Morningglory: 10
morningglory; PREEMERGENCE, Rate 50 g/ha
  Plant response rating, Morningglory: 3
rape; POSTEMERGENCE, Rate 10 g/ha
  Plant response rating, Rape: 1
rape; POSTEMERGENCE, Rate 50 g/ha
  Plant response rating, Rape: 8
rape; PREEMERGENCE, Rate 50 g/ha
  Plant response rating, Rape: 4
rice; POSTEMERGENCE, Rate 10 g/ha
  Plant response rating, Rice: 2
rice; POSTEMERGENCE, Rate 50 g/ha
  Plant response rating, Rice: 4
rice; PREEMERGENCE, Rate 50 g/ha
  Plant response rating, Rice: 0
sorghum; POSTEMERGENCE, Rate 10 g/ha
  Plant response rating, Sorghum: 2
sorghum; POSTEMERGENCE, Rate 50 g/ha
  Plant response rating, Sorghum: 3
sorghum; PREEMERGENCE, Rate 50 g/ha
  Plant response rating, Sorghum: 0
soybean; POSTEMERGENCE, Rate 10 g/ha
  Plant response rating, Soybean: 2
soybean; POSTEMERGENCE, Rate 50 g/ha
  Plant response rating, Soybean: 3
soybean; PREEMERGENCE, Rate 50 g/ha
  Plant response rating, Soybean: 0
Sugar beet; POSTEMERGENCE, Rate 10 g/ha
  Plant response rating, Sugar beet: 10
Sugar beet; POSTEMERGENCE, Rate 50 g/ha
  Plant response rating, Sugar beet: 10
Sugar beet; PREEMERGENCE, Rate 50 g/ha
  Plant response rating, Sugar beet: 10
velvetleaf; POSTEMERGENCE, Rate 10 g/ha
  Plant response rating, Velvetleaf: 2
velvetleaf; POSTEMERGENCE, Rate 50 g/ha
  Plant response rating, Velvetleaf: 10
velvetleaf; PREEMERGENCE, Rate 50 g/ha
  Plant response rating, Velvetleaf: 10
wheat; POSTEMERGENCE, Rate 10 g/ha
  Plant response rating, Wheat: 2
wheat; POSTEMERGENCE, Rate 50 g/ha
  Plant response rating, Wheat: 3
wheat; PREEMERGENCE, Rate 50 g/ha
  Plant response rating, Wheat: 0
Wild buckwheat; POSTEMERGENCE, Rate 10 g/ha
  Plant response rating, Wild buckwheat: 3
Wild buckwheat; POSTEMERGENCE, Rate 50 g/ha
  Plant response rating, Wild buckwheat: 9
Wild buckwheat; PREEMERGENCE, Rate 50 g/ha
  Plant response rating, Wild buckwheat: 0
Wild oat; POSTEMERGENCE, Rate 10 g/ha
  Plant response rating, Wild oat: 1
Wild oat; POSTEMERGENCE, Rate 50 g/ha
  Plant response rating, Wild oat: 2
Wild oat; PREEMERGENCE, Rate 50 g/ha
  Plant response rating, Wild oat: 2
Purple nutsedge; POSTEMERGENCE, Rate 10 g/ha
  Plant response rating, Nutsedge: 0
Purple nutsedge; POSTEMERGENCE, Rate 50 g/ha
  Plant response rating, Nutsedge: 2
Purple nutsedge; PREEMERGENCE, Rate 50 g/ha
  Plant response rating, Nutsedge: 10
